Measured values taken from patent publication US8987273B2, “Substituted imidazo[1,2-B]pyridazines” (Bayer Intellectual Property GmbH, priority 2010, dated 2015).
Structures can show the parent of a compound that is named as a salt.

Key:
[1] = test system: phospho-AKT at S473 in KPL4 breast tumour cell line; assay: Cellular p-AKT1/2/3-S473 assay; assay type: cell-based; conditions: KPL4 cells, 2 hours treatment; median; read-out: pAKT-S743 median IC50
Description: The molecular mechanism of action was investigated in a set of experiments to assess the inhibition of the PI3K-AKT-mTOR pathway in responsive cell lines such as KPL4 breast tumour cell line (PIK3CAH1047R, HER2O/E and hormone independent). The phospho-substrates of PI3K-AKT-mTOR axis were used as the read-outs to reflect pathway inhibition. Cells were seeded at 60-80% confluency per well in 96-well cell culture plates. After overnight incubation at 37° C. 5% CO2, cells were treated with compounds and vehicle at 37° C. for 2 hours. […] All measurements where at least done in duplicates and confirmed by independent repetition.
Alternatively pAKT-S473 was measured using the “Akt Duplex” of the MULTI-SPOT® Assay System (Fa. Meso Scale Discovery, Cat# N41100B-1) following manufacturers instructions. Each assay used 20 μg of protein extract and measured total AKT and p-AKT content simultaneously in one well. All measurements where at least done in duplicates and confirmed by independent repetition. Values for P-AKT are expressed as percentage of P-AKT level compared to total-AKT content of the extracts.

[2] = test system: KPL-4 cells; assay: Tumor cell proliferation assay (CellTiter-Glo); assay type: cell-based; conditions: KPL4; 72 h drug exposure
Description: Compounds were tested in a cell-based assay that measures the capacity of the compounds to inhibit tumour cell proliferation following a 72 h drug exposure. Cell viability is determined using CellTiter-Glow® (CTG, Promega, cat# G757112/3). The CellTiter-Glo® Luminescent Cell Viability Assay is a homogeneous method to determine the number of viable cells in culture. Detection is based on using the luciferase reaction to measure the amount of ATP from viable cells. The amount of ATP in cells correlates with cell viability. Within minutes after a loss of membrane integrity, cells lose the ability to synthesize ATP, and endogenous ATPases destroy any remaining ATP; thus the levels of ATP fall precipitously.
Cells were plated at 3000-5000 cells/well (depending on the cell lines) in 90 μL growth medium on MTPs (Corning; #3603, black plate, clear flat bottom). For each cell line assayed, cells were plated onto a separate plate for determination of […] at t=0 hour and t=72 hour time points. Following overnight incubation at 37° C., chemiluminescence values for the t=0 samples were determined after adding 10 μl medium and 100 μl CTG solution according to manufacture protocol. Plates for the t=72 hour time points were treated with compounds diluted into growth medium at ten times final concentration added in 10 μL to the cell culture plate. Cells were then incubated for 72 hours at 37° C. Chemiluminescence values for the t=72 hour samples were determined. For data analysis, briefly, data from 24 h plate where used to reflect 100% inhibition of growth (“Ci”) and DMSO control for uninhibited growth (“C0”) and analyzed using MTS software package for IC50 and Hill coefficient. Experiments were controlled using a reference compound as standard.

[3] = biological target: His-tagged human recombinant kinase full-length Akt1 (Homo sapiens (Human), UniProt P31749); assay: Akt1 kinase assay (TR-FRET); assay type: biochemical; conditions: 10 μM ATP; median
Chain of His-tagged human recombinant kinase full-length Akt1 (P31749 whole entry): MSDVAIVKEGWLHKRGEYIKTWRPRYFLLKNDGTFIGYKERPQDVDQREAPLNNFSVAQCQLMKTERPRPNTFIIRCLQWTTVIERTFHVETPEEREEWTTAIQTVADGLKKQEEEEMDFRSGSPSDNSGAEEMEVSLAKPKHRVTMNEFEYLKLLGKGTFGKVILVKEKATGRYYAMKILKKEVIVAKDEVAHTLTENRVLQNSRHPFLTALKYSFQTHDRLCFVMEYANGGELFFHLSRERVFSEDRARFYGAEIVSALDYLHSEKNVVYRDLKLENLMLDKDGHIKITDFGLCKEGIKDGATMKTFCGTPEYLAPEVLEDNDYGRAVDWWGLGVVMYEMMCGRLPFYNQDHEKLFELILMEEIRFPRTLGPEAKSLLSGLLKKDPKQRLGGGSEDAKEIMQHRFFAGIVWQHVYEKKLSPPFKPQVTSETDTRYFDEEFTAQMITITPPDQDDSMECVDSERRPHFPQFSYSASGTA
Source text: Akt1 inhibitory activity of compounds of the present invention was quantified employing the Akt1 TR-FRET assay as described in the following paragraphs. His-tagged human recombinant kinase full-length Akt1 expressed in insect cells was purchased form Invitrogen (part number PV 3599). As substrate for the kinase reaction the biotinylated peptide biotin-Ahx-[…] (C-terminus in amide form) was used which can be purchased e.g. from the company Biosynthan GmbH (Berlin-Buch, Germany).
(§1) For the assay 50 nl of a 100 fold concentrated solution of the test compound in DMSO was pipetted into a black low volume 384 well microtiter plate (Greiner Bio-One, Frickenhausen, Germany), 2 μl of a solution of Akt1 in assay buffer [50 mM TRIS/HCl pH 7.5, 5 mM MgCl2, 1 mM dithiothreitol, 0.02% (v/v) Triton X-100 (Sigma)] were added and the mixture was incubated for 15 min at 22° C. to allow pre-binding of the test compounds to the enzyme before the start of the kinase reaction. Then the kinase reaction was started by the addition of 3 μl of a solution of adenosine-tri-phosphate (ATP, 16.7 μM=>final conc. in the 5 μl assay volume is 10 μM) and substrate (1.67 μM=>final conc. in the 5 μl assay volume is 1 μM) in assay buffer and the resulting mixture was incubated for a reaction time of 60 min at 22° C. The concentration of Akt1 in the assay was adjusted depending of the activity of the enzyme lot and was chosen appropriate to have the assay in the linear range, typical enzyme concentrations were in the range of about 0.05 ng/μl (final conc. in the 5 μl assay volume).
(§2) The reaction was stopped by the addition of 5 μl of a solution of HTRF detection reagents (200 nM streptavidine-XL665 [Cisbio] and 1.5 nM anti-phosho-Serine antibody [Millipore, cat. #35-001] and 0.75 nM LANCE Eu-W 1024 labeled anti-mouse IgG antibody [Perkin Elmer]) in an aqueous EDTA-solution (100 mM EDTA, 0.1% (w/v) bovine serum albumin in 50 mM HEPES/NaOH pH 7.5).
(§3) The resulting mixture was incubated 1 h at 22° C. to allow the binding of the biotinylated phosphorylated peptide to the streptavidine-XL665 and the antibodies. Subsequently the amount of phosphorylated substrate was evaluated by measurement of the resonance energy transfer from the anti-mouse-IgG-Eu-Chelate to the streptavidine-XL665. Therefore, the fluorescence emissions at 620 nm and 665 nm after excitation at 350 nm was measured in a HTRF reader, e.g. a Rubystar (BMG Labtechnologies, Offenburg, Germany) or a Viewlux (Perkin-Elmer). The ratio of the emissions at 665 nm and at […] was taken as the measure for the amount of phosphorylated substrate. The data were normalised (enzyme reaction without inhibitor=0% inhibition, all other assay components but no enzyme=100% inhibition).

[4] = biological target: His-tagged human recombinant kinase full-length Akt2 (Homo sapiens (Human), UniProt P31751); assay: Akt2 kinase assay (TR-FRET); assay type: biochemical; conditions: 10 μM ATP; median
Chain of His-tagged human recombinant kinase full-length Akt2 (P31751 whole entry): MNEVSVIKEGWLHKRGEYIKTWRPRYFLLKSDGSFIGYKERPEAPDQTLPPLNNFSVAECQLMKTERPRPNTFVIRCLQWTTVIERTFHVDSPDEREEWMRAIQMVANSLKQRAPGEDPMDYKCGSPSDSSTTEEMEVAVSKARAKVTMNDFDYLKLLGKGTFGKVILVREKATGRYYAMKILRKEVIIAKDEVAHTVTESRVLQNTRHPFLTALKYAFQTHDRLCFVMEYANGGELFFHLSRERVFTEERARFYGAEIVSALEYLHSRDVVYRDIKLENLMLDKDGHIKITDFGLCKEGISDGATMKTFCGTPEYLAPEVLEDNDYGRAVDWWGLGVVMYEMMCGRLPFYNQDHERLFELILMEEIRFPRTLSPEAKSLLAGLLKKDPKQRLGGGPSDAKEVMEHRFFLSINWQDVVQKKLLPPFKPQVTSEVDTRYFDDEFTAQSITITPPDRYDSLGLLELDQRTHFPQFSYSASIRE
Source text: Akt2 inhibitory activity of compounds of the present invention was quantified employing the Akt2 TR-FRET assay as described in the following paragraphs.
His-tagged human recombinant kinase full-length Akt2 expressed in insect cells and activated by PDK1 was purchased form Invitrogen (part number PV 3975). As substrate for the kinase reaction the biotinylated peptide biotin-Ahx-[…] (C-terminus in amide form) was used which can be purchased e.g. from the company Biosynthan GmbH (Berlin-Buch, Germany).
as §1, with “Akt2” for “Akt1”, “0.2” for “0.05”
as §2, with “0.1%/w/v\” for “0.1% (w/v)”
as §3, with “TR-FRET” for “HTRF”

Compound | IC50 [1] | IC50 [2] | IC50 [3] | IC50 [4]
Cc1nc2cc(-c3ccccc3)c(-c3ccc(C4(N)CCC4)cc3)nn2c1/C=C/C(N)=O [Example 10-0, (E)-3-{6-[4-(1-Amino-cyclobutyl)-phenyl]-2-methyl-7-phenyl-imidazo[1,2-b]pyridazin-3-yl}-acrylamide] | 10000 nM | 2490 nM | 18000 nM | 20000 nM
NC1(c2ccc(-c3nn4c(-c5ccc(CO)cc5)cnc4cc3-c3ccccc3)cc2)CCC1 [Example 4-6, (4-{6-[4-(1-Amino-cyclobutyl)-phenyl]-7-phenyl-imidazo[1,2-b]pyridazin-3-yl}-phenyl)-methanol formiate] | 30 nM | 1590 nM | 19 nM | 123 nM
Cc1cc(-c2c(C)nc3cc(-c4ccccc4)c(-c4ccc(C5(N)CCC5)cc4)nn23)[nH]n1 [Example 5-6, 1-{4-[2-Methyl-7-phenyl-3-(5-methyl-2H-pyrazol-3-yl)-imidazo[1,2-b]pyridazin-6-yl]-phenyl}-cyclobutylamine] | 10000 nM | 9220 nM | 14900 nM | 17200 nM
NC1(c2ccc(-c3nn4c(-c5cn[nH]c5)cnc4cc3-c3ccccc3)cc2)CCC1 [Example 4-12, 1-{4-[7-Phenyl-3-(1H-pyrazol-4-yl)-imidazo[1,2-b]pyridazin-6-yl]-phenyl}-cyclobutylamine] | 10 nM | 550 nM | 9 nM | 67 nM
NC(=O)c1cccc(-c2cnc3cc(-c4ccccc4)c(-c4ccc(C5(N)CCC5)cc4)nn23)c1 [Example 4-11, 3-{6-[4-(1-Amino-cyclobutyl)-phenyl]-7-phenyl-imidazo[1,2-b]pyridazin-3-yl}-benzamide hydrochloride] | 20 nM | 1410 nM | 13 nM | 68 nM
C=Cc1cnc2cc(-c3ccccc3)c(-c3ccc(C4(N)CCC4)cc3)nn12 [Example 9-0, 1-[4-(7-Phenyl-3-vinyl-imidazo[1,2-b]pyridazin-6-yl)-phenyl]-cyclobutylamine] | 30 nM | 1870 nM | 44 nM | 326 nM
Cc1nc2cc(-c3ccccc3)c(-c3ccc(C4(N)CCC4)cc3)nn2c1-c1ccc(F)cc1 [Example 5-3, 1-{4-[3-(4-Fluorophenyl)-2-methyl-7-phenyl-imidazo[1,2-b]pyridazin-6-yl]-phenyl}-cyclobutylamine] | 9170 nM | 2280 nM | 4430 nM | 5110 nM
COC(=O)/C=C/c1c(C)nc2cc(-c3ccccc3)c(-c3ccc(C4(N)CCC4)cc3)nn12 [Example 11-0, (E)-3-{6-[4-(1-Amino-cyclobutyl)-phenyl]-2-methyl-7-phenyl-imidazo[1,2-b]pyridazin-3-yl}-acrylic acid methyl ester] | 10000 nM | 5280 nM | 5970 nM | 10100 nM
Cc1nc2cc(-c3ccccc3)c(-c3ccc(C4(N)CCC4)cc3)nn2c1-c1ccc(F)c(CO)c1 [Example 5-1, (5-{6-[4-(1-Amino-cyclobutyl)-phenyl]-2-methyl-7-phenyl-imidazo[1,2-b]pyridazin-3-yl}-2-fluorophenyl)-methanol] | 10000 nM | 2110 nM | 10100 nM | 16700 nM
NC1(c2ccc(-c3nn4c(-c5ccc(F)c(CO)c5)cnc4cc3-c3ccccc3)cc2)CCC1 [Example 4-9, (5-{6-[4-(1-Amino-cyclobutyl)-phenyl]-7-phenyl-imidazo[1,2-b]pyridazin-3-yl}-2-fluorophenyl)-methanol hydrochloride] | 40 nM | 1560 nM | 9 nM | 92 nM
NC1(c2ccc(-c3nn4c(-c5ccc(S(N)(=O)=O)cc5)cnc4cc3-c3ccccc3)cc2)CCC1 [Example 4-7, 4-{6-[4-(1-Amino-cyclobutyl)-phenyl]-7-phenyl-imidazo[1,2-b]pyridazin-3-yl}-benzenesulfonamide hydrocloride] | 160 nM | 1750 nM | 47 nM | 151 nM
